Source: EP4159743A1, “METHODS FOR PREPARING PYRIDAZINE COMPOUNDS” (ETH Zurich, priority 2021, dated 2023)

Assay: Kinetics measurements, control sample: decrease in absorption of the tetrazine alone over time
Assay type: physicochemical
Conditions: absorption at 525 nm monitored over time, trypsin buffer
Method: For kinetic measurements, 196 µL trypsin buffer was added with 2 µL of a 10 mM stock solution of compound 1 in DMSO (final concentration 100 µM) and 2 µL of a 10 mM stock solution of 3,6-di-2-pyridyl-1,2,4,5-tetrazine in DMSO (final concentration 100 µM) in a quartz cuvette. The sample was mixed well and absorption at 525 nm was monitored over time, measuring every minute. Measurements were done in triplicates. […] This was subtracted from the kinetic measurements. The obtained absorbance values were converted to concentrations through a standard curve and were plotted as the reciprocal concentration of the tetrazine reagent versus time to yield a second-order rate constant. Data analysis and statistical analysis were done in Microsoft Excel (2016) and Prism 7 (GraphPad).

In the case of c1ccc(-c2nnc(-c3ccccn3)nn2)nc1 [3,6-di-2-pyridyl-1,2,4,5-tetrazine], the “rate constant (decrease in absorption over time, fitted to a first-order reaction equation)” value is reported as 2.96e-05 s⁻¹.
